From patent US20210087640A1, “APPLICATION OF LARP7 GENE IN CANCER DIAGNOSIS AND TREATMENT” (SHANGHAI JIAO TONG UNIVERSITY, priority 2018, published 2021)
Read-outs that look alike come from different tables or passages of the source.

Key:
[1] = tested on: triple-negative breast cancer cells MDA-MB-231; experiment: CCK8 cell viability experiment, MDA-MB-231; assay type: cell-based
[2] = tested on: cervical cancer cells Hela; experiment: CCK8 cell viability experiment, Hela; assay type: cell-based
[3] = tested on: triple-negative breast cancer cells HCC1937; experiment: CCK8 cell viability experiment, HCC1937; assay type: cell-based; details: read-out: IC50 (the concentration of drug required for 50% inhibition)
Hela = experiment: Clone formation experiment, Hela; assay type: cell-based; details: LARP7 overexpression in Hela vs control
MDA-MB-231 = experiment: Clone formation experiment, MDA-MB-231; assay type: cell-based; details: LARP7 overexpression in MDA-MB-231 vs control
HCC1937 xenograft tumor = experiment: Radiotherapy and chemotherapy of xenograft tumor mice, HCC1937; assay type: in vivo; details: CDDP and radiation
[4] = tested on: MDA-MB-231 xenograft tumor; experiment: Radiotherapy and chemotherapy of xenograft tumor mice, MDA-MB-231; assay type: in vivo; details: CDDP and radiation

IC50 ([1]; LARP7-overexpressing MDA-MB-231 cells) [µM]	IC50 ([1]; MDA-MB-231 control group (of LARP7 overexpression)) [µM]	IC50 ([2]; LARP7-knockdown (siLARP7, sgLARP7)) [µM]	IC50 ([2]; LARP7 overexpression) [µM]	IC50 ([2]; control group of LARP7-knockdown) [µM]	IC50 ([2]; control group of LARP7 overexpression) [µM]	IC50 ([3]; HCC1937 control group (of LARP7 knock-down)) [µM]	IC50 ([3]; LARP7-knock-down HCC1937 cells) [µM]	SMILES	IC50 ([1]; Homo sapiens, MDA-MB-231, LARP7-overexpressing MDA-MB-231 cells) [µM]	IC50 ([1]; Homo sapiens, MDA-MB-231, MDA-MB-231 control group (of LARP7 overexpression)) [µM]	IC50 ([2]; Homo sapiens, HeLa, LARP7 overexpression) [µM]	IC50 ([2]; Homo sapiens, HeLa, control group of LARP7 overexpression) [µM]	IC50 ([3]; Homo sapiens, HCC1937, HCC1937 control group (of LARP7 knock-down)) [µM]	IC50 ([3]; Homo sapiens, HCC1937, LARP7-knock-down HCC1937 cells) [µM]	sensitivity of the cells by clone formation (Hela)	sensitivity of the cells by clone formation (MDA-MB-231)	sensitivity of in vivo tumor tissue (HCC1937 xenograft tumor; HCC1937 cells (high LARP7 expression))	sensitivity of in vivo tumor tissue (HCC1937 xenograft tumor; LARP7-knock-out HCC1937 cells (sgLARP7))	sensitivity of in vivo tumor tissue ([4]; MDA-MB-231 cells (low LARP7 expression))	sensitivity of in vivo tumor tissue ([4]; MDA-MB-231 cells with artificial LARP7 overexpression)
								CO[C@@]12[C@H](COC(N)=O)C3=C(C(=O)C(C)=C(N)C3=O)N1C[C@@H]1N[C@@H]12 [MMS, mitomycin]	262 ± 20.3	451 ± 29.4	123 ± 22	210 ± 21.6	247 ± 38.1	682 ± 123						
76.3 ± 26.7	232 ± 83.9	55.8 ± 5.4	19.1 ± 6.9	31.4 ± 6	39.6 ± 2.5	102 ± 9.1	185 ± 20.5	[NH2][Pt]([NH2])([Cl])[Cl] [CDDP, cisplatin]							significantly increases cell sensitivity	significantly increases the sensitivity	sensitive	less sensitive	tolerant	significantly improved the sensitivity
